Key:
[1] = biological target: T1, Human Factor XIIa (Homo sapiens, UniProt P00748); experiment: Determination of Factor XIIa inhibitory activity in vitro (fluorogenic substrate H-DPro-Phe-Arg-AFC); type: biochemical; conditions: Human Factor XIIa (Enzyme Research Laboratories), 25° C., read-out: Human FXIIa IC50
T1 construct: purchased Enzyme Research Laboratories
T1 sequence (P00748 373-615 limits assumed): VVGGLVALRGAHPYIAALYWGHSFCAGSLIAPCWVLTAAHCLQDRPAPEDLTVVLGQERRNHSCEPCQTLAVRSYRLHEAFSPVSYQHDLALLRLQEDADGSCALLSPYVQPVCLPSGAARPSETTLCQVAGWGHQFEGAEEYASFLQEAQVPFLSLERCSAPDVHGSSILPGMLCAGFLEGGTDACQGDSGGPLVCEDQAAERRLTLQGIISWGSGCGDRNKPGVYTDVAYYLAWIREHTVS
T1 sequence (P00748 20-372 partner limits assumed): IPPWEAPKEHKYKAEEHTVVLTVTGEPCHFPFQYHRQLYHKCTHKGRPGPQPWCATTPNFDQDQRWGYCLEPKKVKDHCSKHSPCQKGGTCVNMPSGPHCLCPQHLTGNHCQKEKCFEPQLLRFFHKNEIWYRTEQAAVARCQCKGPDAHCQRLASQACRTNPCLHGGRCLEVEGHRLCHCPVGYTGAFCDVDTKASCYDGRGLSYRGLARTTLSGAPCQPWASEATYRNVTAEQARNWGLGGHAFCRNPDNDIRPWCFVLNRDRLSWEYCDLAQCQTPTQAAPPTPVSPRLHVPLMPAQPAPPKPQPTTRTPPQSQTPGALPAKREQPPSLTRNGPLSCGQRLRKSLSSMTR
Outline: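 In vitro inhibition of human Factor XIIa (sourced from Enzyme Research Laboratories) was measured by incubating the enzyme at 25° C. with the fluorogenic substrate H-DPro-Phe-Arg-AFC across a range of test compound concentrations. The initial reaction rate, taken as residual enzyme activity, was followed by the […], and IC50 values were calculated.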

[2] = biological target: T2, Human FXIa (Homo sapiens, UniProt P03951); experiment: Determination of FXIa inhibitory activity in vitro (fluorogenic substrate Z-Gly-Pro-Arg-AFC); type: biochemical; conditions: Selectivity, Human FXIa (Enzyme Research Laboratories), 25° C.
T2 construct: purchased Enzyme Research Laboratories
T2 sequence (P03951 388-625 limits assumed): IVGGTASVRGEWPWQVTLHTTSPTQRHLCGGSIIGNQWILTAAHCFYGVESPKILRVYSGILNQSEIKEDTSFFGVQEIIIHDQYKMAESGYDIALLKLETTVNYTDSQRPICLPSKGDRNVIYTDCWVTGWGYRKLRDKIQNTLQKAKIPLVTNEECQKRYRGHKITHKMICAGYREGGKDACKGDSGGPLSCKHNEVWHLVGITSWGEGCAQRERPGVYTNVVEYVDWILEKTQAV
T2 sequence (P03951 19-387 partner limits assumed): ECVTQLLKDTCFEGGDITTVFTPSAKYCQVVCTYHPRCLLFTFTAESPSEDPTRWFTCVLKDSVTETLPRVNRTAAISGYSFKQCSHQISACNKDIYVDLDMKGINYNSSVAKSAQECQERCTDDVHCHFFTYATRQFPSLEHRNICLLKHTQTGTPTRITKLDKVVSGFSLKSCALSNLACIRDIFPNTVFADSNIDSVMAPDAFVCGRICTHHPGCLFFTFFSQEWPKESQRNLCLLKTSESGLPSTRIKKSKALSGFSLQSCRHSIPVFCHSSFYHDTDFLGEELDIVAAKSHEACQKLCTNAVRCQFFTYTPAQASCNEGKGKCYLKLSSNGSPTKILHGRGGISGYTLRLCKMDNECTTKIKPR

SMILES: CC(C)N1CCCC(C(=O)Nc2ncc(Cl)cc2C(=O)NCc2ccc3c(N)nccc3c2)C1 (stereo not drawn) [Example 1.69]
- IC50 [1]: 3 to 10 µM
- IC50 [2]: > 40 µM

SMILES: Nc1nccc2cc(CNC(=O)c3cc(Cl)cnc3NC[C@@H]3CCC(=O)N3)ccc12 [Example 1.70]
- IC50 [1]: 10 to 40 µM
- IC50 [2]: > 40 µM

SMILES: CC(Nc1ncc(Cl)cc1C(=O)NCc1ccc2c(N)nccc2c1)C1CCN(C)CC1 (stereo not drawn) [Example 1.71]
- IC50 [1]: 0.3 to 1 µM
- IC50 [2]: > 40 µM

SMILES: Nc1nccc2cc(CNC(=O)c3cc(Cl)cnc3NC[C@H]3CCC(=O)N3)ccc12 [Example 1.72, R—N-[(1-aminoisoquinoline-6-yl)methyl)-5-chloro-2-(((5-oxopyrrolidin-2-yl)methyl)amino)nicotinamide]
- IC50 [1]: 10 to 40 µM
- IC50 [2]: 3.16 µM

SMILES: CN1CCC(CNc2ncccc2C(=O)NCc2ccc3c(N)nccc3c2)CC1 [Example 4.01, N-((1-aminoisoquinolin-6-yl)methyl)-2-(((1-methylpiperidin-4-yl)methyl)amino)nicotinamide]
- IC50 [1]: 1 to 3 µM
- IC50 [2]: > 40 µM

SMILES: Cc1cnc(NCC2CCN(C)CC2)c(C(=O)NCc2ccc3c(N)nccc3c2)c1 [Example 4.02]
- IC50 [1]: 0.3 to 1 µM
- IC50 [2]: > 40 µM

SMILES: CN1CCC(CNc2nccnc2C(=O)NCc2ccc3c(N)nccc3c2)CC1 [Example 4.03, N-((1-aminoisoquinolin-6-yl)methyl)-3-(((1-methylpiperidin-4-yl)methyl)amino)pyrazine-2-carboxamide]
- IC50 [1]: 0.3 to 1 µM
- IC50 [2]: > 40 µM

SMILES: CN1CCC(CNc2cncc(C(=O)NCc3ccc4c(N)nccc4c3)n2)CC1 [Example 4.04]
- IC50 [1]: 1 to 3 µM
- IC50 [2]: > 40 µM

SMILES: CN1CCC(CNc2cnc(C(=O)NCc3ccc4c(N)nccc4c3)cn2)CC1 [Example 4.05]
- IC50 [1]: 3 to 10 µM
- IC50 [2]: > 40 µM

SMILES: COc1ccc(C(=O)NCc2ccc3c(N)nccc3c2)c(NCC2CCN(C)CC2)n1 [Example 4.06]
- IC50 [1]: 1 to 3 µM
- IC50 [2]: > 40 µM

SMILES: CN1CCC(CNc2nc(Cl)ccc2C(=O)NCc2ccc3c(N)nccc3c2)CC1 [Example 4.07]
- IC50 [1]: 0.3 to 1 µM
- IC50 [2]: 23.6 µM

SMILES: CN1CCC(CNc2nccc(Cl)c2C(=O)NCc2ccc3c(N)nccc3c2)CC1 [Example 4.08]
- IC50 [1]: 10 to 40 µM
- IC50 [2]: > 40 µM

SMILES: CN1CCC(CNc2ncc(Br)cc2C(=O)NCc2ccc3c(N)nccc3c2)CC1 [Example 4.09]
- IC50 [1]: < 0.3 µM
- IC50 [2]: > 40 µM

SMILES: CN1CCC(CNc2ncc(C3CC3)cc2C(=O)NCc2ccc3c(N)nccc3c2)CC1 [Example 4.10]
- IC50 [1]: 0.3 to 1 µM
- IC50 [2]: > 40 µM

SMILES: CN1CCC(CNc2ncc(-c3cccnc3)cc2C(=O)NCc2ccc3c(N)nccc3c2)CC1 [Example 4.11, N-((1-aminoisoquinolin-6-yl)methyl)-6-(((1-methylpiperidin-4-yl)methyl)amino)-[3,3′-bipyridine]-5-carboxamide]
- IC50 [1]: 0.3 to 1 µM
- IC50 [2]: > 40 µM

SMILES: COc1cnc(NCC2CCN(C)CC2)c(C(=O)NCc2ccc3c(N)nccc3c2)c1 [Example 4.12]
- IC50 [1]: 1 to 3 µM
- IC50 [2]: > 40 µM

SMILES: Cc1ccc(C(=O)NCc2ccc3c(N)nccc3c2)c(NCC2CCN(C)CC2)n1 [Example 4.13]
- IC50 [1]: 0.3 to 1 µM
- IC50 [2]: > 40 µM

SMILES: Cc1ccnc(NCC2CCN(C)CC2)c1C(=O)NCc1ccc2c(N)nccc2c1 [Example 4.14]
- IC50 [1]: 10 to 40 µM
- IC50 [2]: > 40 µM

SMILES: CN1CCC(CNc2nc(-c3ccccc3)ccc2C(=O)NCc2ccc3c(N)nccc3c2)CC1 [Example 4.15]
- IC50 [1]: 1 to 3 µM
- IC50 [2]: > 40 µM

SMILES: CN1CCC(CNc2nc(-c3cccnc3)ccc2C(=O)NCc2ccc3c(N)nccc3c2)CC1 [Example 4.16]
- IC50 [1]: 0.3 to 1 µM
- IC50 [2]: > 40 µM

SMILES: CN1CCC(CNc2nc(C3CC3)ccc2C(=O)NCc2ccc3c(N)nccc3c2)CC1 [Example 4.17]
- IC50 [1]: 1 to 3 µM
- IC50 [2]: > 40 µM

SMILES: CN1CCC(CNc2ncc(-c3ccccc3)nc2C(=O)NCc2ccc3c(N)nccc3c2)CC1 [Example 4.18]
- IC50 [1]: 0.3 to 1 µM
- IC50 [2]: 23.3 µM

SMILES: CN1CCC(CNc2nc(Cl)c(Cl)cc2C(=O)NCc2ccc3c(N)nccc3c2)CC1 [Example 4.19]
- IC50 [1]: < 0.3 µM
- IC50 [2]: > 40 µM

SMILES: CN1CCC(CNc2ncc(-c3cnn(C)c3)nc2C(=O)NCc2ccc3c(N)nccc3c2)CC1 [Example 4.20]
- IC50 [1]: 0.3 to 1 µM
- IC50 [2]: 12.7 µM

SMILES: Cc1cc(C(=O)NCc2ccc3c(N)nccc3c2)c(NCC2CCN(C)CC2)nc1C [Example 4.21]
- IC50 [1]: 0.3 to 1 µM
- IC50 [2]: > 40 µM

SMILES: Nc1nccc2cc(CNC(=O)c3nccnc3Nc3ccc(N4CCNCC4)cc3)ccc12 [Example 4.22]
- IC50 [1]: 10 to 40 µM
- IC50 [2]: > 40 µM

SMILES: CN1CCc2c(cccc2Nc2nccnc2C(=O)NCc2ccc3c(N)nccc3c2)C1 [Example 4.23]
- IC50 [1]: 0.3 to 1 µM
- IC50 [2]: > 40 µM

SMILES: CN1CCc2cc(Nc3nccnc3C(=O)NCc3ccc4c(N)nccc4c3)ccc2C1 [Example 4.24]
- IC50 [1]: 0.3 to 1 µM
- IC50 [2]: > 40 µM

SMILES: Nc1nccc2cc(CNC(=O)c3nccnc3NCC3CCN(CCO)CC3)ccc12 [Example 4.25]
- IC50 [1]: 0.3 to 1 µM
- IC50 [2]: > 40 µM

SMILES: Nc1nccc2cc(CNC(=O)c3cnc(N4CCN(c5ccncc5)CC4)c(Cl)c3)ccc12 [Example 8.08]
- IC50 [1]: 10 to 40 µM
- IC50 [2]: > 40 µM

SMILES: CN(CC1CCN(c2ccncc2)CC1)c1ncc(C(=O)NCc2ccc3c(N)nccc3c2)cc1Cl [Example 8.09, N-[(1-amino-6-isoquinolyl)methyl]-5-chloro-6-[methyl-[[1-(4-pyridyl)-4-piperidyl]methyl]amino]pyridine-3-carboxamide]
- IC50 [1]: 1 to 3 µM
- IC50 [2]: > 40 µM

SMILES: N#Cc1cccc(CNc2ncc(C(=O)NCc3ccc4c(N)nccc4c3)cc2Cl)c1 [Example 11.28]
- IC50 [1]: 10 to 40 µM
- IC50 [2]: > 40 µM

SMILES: COCCNc1ncc(C(=O)NCc2ccc3c(N)nccc3c2)cc1Cl [Example 11.29]
- IC50 [1]: 10 to 40 µM
- IC50 [2]: > 40 µM

SMILES: CN(C)CCNc1ncc(C(=O)NCc2ccc3c(N)nccc3c2)cc1Cl [Example 11.30]
- IC50 [1]: 10 to 40 µM
- IC50 [2]: > 40 µM

SMILES: Nc1nccc2cc(CNC(=O)c3cnc(NCCn4cncn4)c(Cl)c3)ccc12 [Example 11.31]
- IC50 [1]: 10 to 40 µM
- IC50 [2]: > 40 µM

SMILES: CN1C(C)(C)CC(Nc2ncc(C(=O)NCc3ccc4c(N)nccc4c3)cc2Cl)CC1(C)C [Example 11.32]
- IC50 [1]: 10 to 40 µM
- IC50 [2]: > 40 µM

SMILES: CN1CCC(Nc2ncc(C(=O)NCc3ccc4c(N)nccc4c3)cc2Cl)CC1 [Example 11.33]
- IC50 [1]: 10 to 40 µM
- IC50 [2]: > 40 µM

SMILES: Nc1nccc2cc(CNC(=O)c3cnc(NC4CCNCC4)c(Cl)c3)ccc12 [Example 11.34]
- IC50 [1]: 10 to 40 µM
- IC50 [2]: > 40 µM

SMILES: CN1CCC(Nc2ncc(C(=O)NCc3ccc4c(N)nccc4c3)cc2Cl)CC1=O (stereo not drawn) [Example 11.35]
- IC50 [1]: 10 to 40 µM
- IC50 [2]: > 40 µM

SMILES: CC(C)N1CCC(Nc2ncc(C(=O)NCc3ccc4c(N)nccc4c3)cc2Cl)CC1 [Example 11.36]
- IC50 [1]: 3 to 10 µM
- IC50 [2]: > 40 µM

SMILES: CC(C)CN1CCC(Nc2ncc(C(=O)NCc3ccc4c(N)nccc4c3)cc2Cl)CC1 [Example 11.37]
- IC50 [1]: 10 to 40 µM
- IC50 [2]: > 40 µM

SMILES: CS(=O)(=O)N1CCC(Nc2ncc(C(=O)NCc3ccc4c(N)nccc4c3)cc2Cl)CC1 [Example 11.38]
- IC50 [1]: 10 to 40 µM
- IC50 [2]: > 40 µM

SMILES: CC(=O)N1CCC(Nc2ncc(C(=O)NCc3ccc4c(N)nccc4c3)cc2Cl)CC1 [Example 11.39]
- IC50 [1]: 10 to 40 µM
- IC50 [2]: > 40 µM

SMILES: Nc1nccc2cc(CNC(=O)c3cnc(NC4CCN(c5nccs5)CC4)c(Cl)c3)ccc12 [Example 11.40]
- IC50 [1]: 10 to 40 µM
- IC50 [2]: > 40 µM

SMILES: COCCN1CCC(Nc2ncc(C(=O)NCc3ccc4c(N)nccc4c3)cc2Cl)CC1 [Example 11.41]
- IC50 [1]: 10 to 40 µM
- IC50 [2]: > 40 µM

SMILES: Nc1nccc2cc(CNC(=O)c3cnc(NC4CCN(C5CC5)CC4)c(Cl)c3)ccc12 [Example 11.42]
- IC50 [1]: 10 to 40 µM
- IC50 [2]: > 40 µM

SMILES: Nc1nccc2cc(CNC(=O)c3cnc(OCCN4CCCCC4)c(Cl)c3)ccc12 [Example 13.26, N-((1-aminoisoquinolin-6-yl)methyl)-5-chloro-6-(2-(piperidin-1-yl)ethoxy)nicotinamide]
- IC50 [1]: 3 to 10 µM
- IC50 [2]: > 40 µM

SMILES: Nc1nccc2cc(CNC(=O)c3cnc(OCCCN4CCCCC4)c(Cl)c3)ccc12 [Example 13.27]
- IC50 [1]: 3 to 10 µM
- IC50 [2]: > 40 µM

SMILES: Nc1nccc2cc(CNC(=O)c3cc(Cl)cnc3N3CCN(c4ncccn4)CC3)ccc12 [Example 16.04]
- IC50 [1]: 10 to 40 µM
- IC50 [2]: > 40 µM

SMILES: CC(=O)NCCN1CCN(c2ncc(Cl)cc2C(=O)NCc2ccc3c(N)nccc3c2)CC1 [Example 16.05]
- IC50 [1]: 3 to 10 µM
- IC50 [2]: > 40 µM

SMILES: Nc1nccc2cc(CNC(=O)c3ccc(CN4CCN(c5ccncc5)CC4)c(Cl)c3)ccc12 [Example 29.07, N-((1-aminoisoquinolin-6-yl)methyl)-3-chloro-4-((4-(pyridin-4-yl)piperazin-1-yl)methyl)benzamide]
- IC50 [1]: 10 to 40 µM
- IC50 [2]: 21 µM

Reference: US20220298141A1, “ENZYME INHIBITORS” (KALVISTA PHARMACEUTICALS LIMITED, priority 2019, published 2022)
